One assay concerns IFN-γ. Put plainly: Cytokine concentrations in milk of treated cows (ELISA). Type of assay: in vivo. The protocol:
Once cows were treated, composite milk samples from both treated groups were collected at days 21 and 22 after treatment for SCC and microbiological analyses. Procedures for SCC and microbiology were previously described. Treatment was repeated in cows that remained positive for major Gram-positive bacteria, receiving the same product used for the first treatment 4 days after collecting the second milk sample. A final milk sampling was conducted on all refractory cases 21 and 22 days after the repeated treatment. Individual cow SCC, including laboratory data and pre- and post-treatment concentration of cytokines (IL-1, IL-2, IL-4, IL-6, IL-8, IFN-γ, and TNF-α), were generated for each milk sample. No more than two treatment attempts per cow were performed and used in the study.
Proteins were analyzed in hemoderivatives and whole milk using commercial ELISA development kits from R&D Systems (Minneapolis, Minn., USA) with the exception of […]. PDGF-BB (Human PDGF-BB DuoSet, DY220), TGF-β1 (Human TGF-β1 DuoSet, DY240E), and PF4 (Human CXCL4/PF4 Duoset, DY795), which were determined using human antibodies. […]
(In general: In an ELISA, binding on a coated surface is turned into a signal by an enzyme label.)

Assay [1] has as its system Gram-positive major pathogens. As to the kind of experiment: Non-inferiority randomized clinical trial: bacteriological cure in cows with subclinical mastitis. Type of assay: in vivo. The protocol:
(§1) A non-inferiority randomized clinical trial was conducted, following methodology described in Schukken et al., “Noninferiority Trial Comparing a First-Generation Cephalosporin With a Third-Generation Cephalosporin in the Treatment of Nonsevere Clinical Mastitis in Dairy Cows,” J. Dairy Sci. 96(10): 6763-74 (2013). […] Ha: [Rcure(cefquinome)−Rcure(P-PRP)]>−Δ [2] where “Rcure”is the cure risk and “Δ” is the non-inferiority margin. Results were interpreted according to the principles for a non-inferiority trial (Piaggio et al., “Reporting of Noninferiority and Equivalence Randomized Trials: Extension of the CONSORT 2010 Statement,” JAMA 308(24): 2594-604 (2012); Schukken et al. (2013)).
The milk samples were streaked onto agar plates containing 5% sheep blood and 0.1% esculin. The agar plates were incubated at 37.5° C. and visually inspected at 24 hours and 48 hours for bacterial growth. Morphology and Gram staining were used for initial identification. A catalase test was used to differentiate staphylococci from streptococci, and a coagulase test was performed on catalase-positive cocci to confirm presence of Staphylococcus aureus. Gram-positive and catalase-negative cocci were differentiated by their reaction to the hydrolysis of esculin under ultraviolet light. The Christie, Atkins, Munch-Petersen (CAMP) test and esculin reaction were used to differentiate Streptococcus agalactiae and Streptococcus dysgalactiae, and esculin reaction and culture in enterococcosel agar (from Becton-Dickinson, Durham, N.C., USA) were used to identify Streptococcus uberis. Their morphology and Gram staining were used to identify Corynebacterium species. Growth in McConckey agar and further biochemical tests, such as citrate, indole, oxidase and motility, were used to identify coliforms. Those cultures that presented more than two bacterial species were considered contaminated and not informative of intramammary infection. […]

The subject of another assay is Streptococcus uberis. Put plainly: Non-inferiority trial: bacteriological cure, Strep. uberis infections. Type of assay: in vivo, cows. The note with it: Strep. uberis cases; margin −0.175; 95% CI; FIG. 6. The protocol:
as §1
(§2) The milk samples were streaked onto agar plates containing 5% sheep blood and 0.1% esculin. The agar plates were incubated at 37.5° C. and visually inspected at 24 hours and 48 hours for bacterial growth. Morphology and Gram staining were used for initial identification. A catalase test was used to differentiate staphylococci from streptococci, and a coagulase test was performed on catalase-positive cocci to confirm presence of Staphylococcus aureus. Gram-positive and catalase-negative cocci were differentiated by their reaction to the hydrolysis of esculin under ultraviolet light. […]

Assay [2] can be described thus: Somatic cell count (LnSCC) in milk of treated cows. Type of assay: in vivo. The note with it: days 21, 22, 47, 48 vs day 0; FIG. 7. From the text: Two individual composite milk samples were aseptically collected from each cow during the first visit to the herd in order to select the cows to be treated for subclinical mastitis. These milk samples were refrigerated and submitted to Universidad de Caldas for analysis, with one of the samples being used for analysis of subclinical mastitis using an automated cell counter (FOSSOMATIC, from Foss, Hillerod, Denmark). The subclinical mastitis results were expressed as the natural log (LnSCC), in thousands/mL to normalize the data distribution. […]
Cure was defined at the cow level. […] Cure risk was statistically assessed for initial treatment (samples taken at days 21 and 22) and treatment of refractory cases samples (samples taken at days 47 and 48), independently. […]
The statistical analyses of LnSCC and the milk concentration of IL-1, IL-2, IL-4, IL-6, IL-8, IFN-γ, and TNF-αresults were done using linear regression. […] The linear regression model used was: y=intercept+treatment+herd+parity+LnSCC+error [4] where y corresponds to LnSCC after treatment on days 21 and 47 for cows treated one or two times, respectively, and the milk concentrations of IL-1, IL-2, IL-4, IL-6, IL-8, IFN-γ, and TNF-α, which were measured only at days 0 and 21. […]

For a further assay, the system named is Streptococcus agalactiae. Put plainly: Non-inferiority trial: bacteriological cure, Strep. agalactiae infections. Type of assay: in vivo, cows. How it is done: as §1, §2

As for `CO/N=C(\C(=O)N[C@@H]1C(=O)N2C(C(=O)[O-])=C(C[n+]3cccc4c3CCCC4)CS[C@H]12)c1csc(N)n1.O=S(=O)(O)O` [cefquinome sulphate], in the assay on IFN-γ (by day 47 in cows treated twice), the “Concentration of IFN-γ in milk, change” value is “increased”. Further, the “Concentration of IFN-γ in milk, comparison between groups” value with IFN-γ (days 0 and 22) is on record as “higher”. Moreover, the “Risk difference for bacteriological cure, non-inferiority interpretation” value in assay [1] (all cases, margin −0.175, 95% CI, FIG. 6) is listed as “better”; in the assay with Streptococcus uberis, “better”; in the assay with Streptococcus agalactiae (Strep. agalactiae cases, margin −0.175, 95% CI, FIG. 6), “better, although non-inferiority is inconclusive”. Moreover, the “Overall bacteriological cure, percent of cows” value in assay [1] (cows with subclinical mastitis, EG n=54, RG n=49) is 71%. The “Overall bacteriological cure, number of cows” value in assay [1] (cows with subclinical mastitis, intramammary infusion, three consecutive milkings, EG n=54, RG n=49) is 35 cows. Also, the “Change of mean LnSCC in milk after the start of the trial” value in assay [2] was “no differences”. Further, in the assay on Streptococcus agalactiae (in vivo), the “Cure risk for Strep. agalactiae” value is 100%.
